Source: publication PMC6296572 (Journal of Genetic Engineering & Biotechnology, 2017)

Test system: laccase from Trichoderma harzianum strain HZN10 (free, purified)
Test: ABTS oxidation, absorbance at […] nm
Format: biochemical
Settings: free enzyme; ABTS 0.2-2.4 mM; standard assay 0.1 M sodium phosphate pH 6, 25 °C

## CCn1c(=NN=c2sc3cc(S(=O)(=O)O)ccc3n2CC)sc2cc(S(=O)(=O)O)ccc21 [ABTS, 2,2′-azino-bis(3-ethylbenzothiazoline-6-sulfonic acid)]
  Km: 500 µM
